Assays:
[1] = test system: corn; assay: Test C preemergence; format: in vivo, Zea mays; details: for Corn plant response rating: preemergence, 0 to 100 scale (0 no effect, 100 complete control)
Summary of the method: (§1)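 Pre: seeds in loam/sand, directed soil spray. Post: 1–2 leaf plants, 2–10 cm. Cmpd in non-phytotoxic solvent + surfactant. Greenhouse 10 d; visual rating vs untreated, 0 = none, 100 = complete control.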

[2] = test system: sedge, umbrella; assay: Test D flooded paddy test; format: in vivo, Cyperus difformis; details: 250 g ai/ha, applied to paddy water, visual rating after 13 to 14 days, scale 0 to 100 (0 no effect, 100 complete control)
Summary of the method: (§2)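 At the 2-leaf stage, floodwater 3 cm deep received the test compound; that depth persisted throughout. Plants scored visually 13 to 14 days on, 0 (no effect) to 100 (complete control), dash indicating no result.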

[3] = test system: ducksalad; assay: Test D flooded paddy test; format: in vivo, Heteranthera limosa; details: 250 g ai/ha, applied to paddy water, visual rating after 13 to 14 days, scale 0 to 100 (0 no effect, 100 complete control)
Summary of the method: as §2

[4] = test system: wheat; assay: Test C postemergence; format: in vivo, Triticum aestivum; details: 10 days, 0 to 100 scale (0 no effect, 100 complete control)
Summary of the method: as §1

[5] = test system: wheat; assay: Test C preemergence; format: in vivo, Triticum aestivum; details: for Wheat plant response rating: preemergence, 0 to 100 scale (0 no effect, 100 complete control)
Summary of the method: as §1

[6] = test system: oat, wild; assay: Test C postemergence; format: in vivo, Avena fatua; details: 10 days, 0 to 100 scale (0 no effect, 100 complete control)
Summary of the method: as §1

[7] = test system: barnyardgrass; assay: Test C preemergence; format: in vivo, Echinochloa crusgalli; details: for Barnyardgrass plant response rating: preemergence, 0 to 100 scale (0 no effect, 100 complete control)
Summary of the method: as §1

[8] = test system: ragweed; assay: Test C postemergence; format: in vivo, Ambrosia artemisiifolia; details: 10 days, 0 to 100 scale (0 no effect, 100 complete control)
Summary of the method: as §1

[9] = test system: green foxtail; assay: Test C preemergence; format: in vivo, Setaria viridis; details: for Foxtail, Green plant response rating: preemergence, 0 to 100 scale (0 no effect, 100 complete control)
Summary of the method: as §1

[10] = test system: barnyardgrass; assay: Test D flooded paddy test; format: in vivo, Echinochloa crus-galli; details: 250 g ai/ha, applied to paddy water, visual rating after 13 to 14 days, scale 0 to 100 (0 no effect, 100 complete control)
Summary of the method: as §2

[11] = test system: corn; assay: Test C postemergence; format: in vivo, Zea mays; details: 10 days, 0 to 100 scale (0 no effect, 100 complete control)
Summary of the method: as §1

[12] = test system: kochia; assay: Test C preemergence; format: in vivo, Bassia scoparia; details: for Kochia plant response rating: preemergence, 0 to 100 scale (0 no effect, 100 complete control)
Summary of the method: as §1

[13] = test system: ragweed; assay: Test C preemergence; format: in vivo, Ambrosia artemisiifolia
Summary of the method: as §1

[14] = test system: blackgrass; assay: Test C preemergence; format: in vivo, Alopecurus myosuroides; details: for Blackgrass plant response rating: preemergence, 0 to 100 scale (0 no effect, 100 complete control)
Summary of the method: as §1

[15] = test system: pigweed, palmer; assay: Test C preemergence; format: in vivo, Amaranthus palmeri; details: for Pigweed, Palmer plant response rating: preemergence, 0 to 100 scale (0 no effect, 100 complete control)
Summary of the method: as §1

[16] = test system: oat, wild; assay: Test C preemergence; format: in vivo, Avena fatua; details: for Oat, Wild plant response rating: preemergence, 0 to 100 scale (0 no effect, 100 complete control)
Summary of the method: as §1

[17] = test system: ryegrass, Italian; assay: Test C postemergence; format: in vivo, Lolium multiflorum; details: 10 days, 0 to 100 scale (0 no effect, 100 complete control)
Summary of the method: as §1

[18] = test system: blackgrass; assay: Test C postemergence; format: in vivo, Alopecurus myosuroides; details: 10 days, 0 to 100 scale (0 no effect, 100 complete control)
Summary of the method: as §1

[19] = test system: ryegrass, Italian; assay: Test C preemergence; format: in vivo, Lolium multiflorum; details: for Ryegrass, Italian plant response rating: preemergence, 0 to 100 scale (0 no effect, 100 complete control)
Summary of the method: as §1

[20] = test system: green foxtail; assay: Test C postemergence; format: in vivo, Setaria viridis; details: 10 days, 0 to 100 scale (0 no effect, 100 complete control)
Summary of the method: as §1

[21] = test system: horseweed; assay: Test C postemergence; format: in vivo, Erigeron canadensis; details: 10 days, 0 to 100 scale (0 no effect, 100 complete control)
Summary of the method: as §1

[22] = test system: barnyardgrass; assay: Test C postemergence; format: in vivo, Echinochloa crusgalli; details: 10 days, 0 to 100 scale (0 no effect, 100 complete control)
Summary of the method: as §1

[23] = test system: rice; assay: Test D flooded paddy test; format: in vivo, Oryza sativa; details: 250 g ai/ha, applied to paddy water, visual rating after 13 to 14 days, scale 0 to 100 (0 no effect, 100 complete control)
Summary of the method: as §2

[24] = test system: pigweed, palmer; assay: Test C postemergence; format: in vivo, Amaranthus palmeri; details: 10 days, 0 to 100 scale (0 no effect, 100 complete control)
Summary of the method: as §1

[25] = test system: kochia; assay: Test C postemergence; format: in vivo, Bassia scoparia; details: 10 days, 0 to 100 scale (0 no effect, 100 complete control)
Summary of the method: as §1

[26] = test system: soybean; assay: Test C postemergence; format: in vivo, Glycine max; details: 10 days, 0 to 100 scale (0 no effect, 100 complete control)
Summary of the method: as §1

[27] = test system: galium; assay: Test C postemergence; format: in vivo, Galium aparine; details: 10 days, 0 to 100 scale (0 no effect, 100 complete control)
Summary of the method: as §1

[28] = test system: soybean; assay: Test C preemergence; format: in vivo, Glycine max; details: for Soybean plant response rating: preemergence, 0 to 100 scale (0 no effect, 100 complete control)
Summary of the method: as §1

[29] = Preemergence, 125 g ai/ha, 0 to 100 scale, 0 no effect, 100 complete control

Compound: CCOC[C@H]1CN(C(=O)c2cc(-n3cnc(C(C)C)n3)ccc2OC)c2cccc(Cl)c2O1 [Compound 341]
- Corn plant response rating ([1]; 500 g ai/ha): 30
- Plant response rating, Corn [1, 29]: 20
- Plant response rating, Sedge, Umbrella (Flood) [2]: 90
- Plant response rating, Ducksalad (Flood) [3]: 70
- Plant response rating, Wheat ([4]; 500 g ai/ha, postemergence): 20
- Plant response rating, Wheat ([4]; Postemergence, 125 g ai/ha): 10
- Wheat plant response rating ([5]; 500 g ai/ha): 30
- Plant response rating, Wheat [5, 29]: 30
- Plant response rating, Oat, Wild ([6]; 500 g ai/ha, postemergence): 20
- Plant response rating, Oat, Wild ([6]; Postemergence, 125 g ai/ha): 10
- Barnyardgrass plant response rating ([7]; 500 g ai/ha): 100
- Plant response rating, Barnyardgrass [7, 29]: 90
- Plant response rating, Ragweed ([8]; 500 g ai/ha, postemergence): 90
- Plant response rating, Ragweed ([8]; Postemergence, 125 g ai/ha): 60
- Foxtail, Green plant response rating ([9]; 500 g ai/ha): 100
- Plant response rating, Foxtail, Green [9, 29]: 100
- Plant response rating, Barnyardgrass (Flood) [10]: 25
- Plant response rating, Corn ([11]; 500 g ai/ha, postemergence): 80
- Plant response rating, Corn ([11]; Postemergence, 125 g ai/ha): 0
- Kochia plant response rating ([12]; 500 g ai/ha): 100
- Plant response rating, Kochia [12, 29]: 100
- Ragweed plant response rating ([13]; 500 g ai/ha, preemergence, 0 to 100 scale (0 no effect, 100 complete control)): 100
- Plant response rating, Ragweed [13, 29]: 80
- Blackgrass plant response rating ([14]; 500 g ai/ha): 80
- Plant response rating, Blackgrass [14, 29]: 20
- Pigweed, Palmer plant response rating ([15]; 500 g ai/ha): 100
- Plant response rating, Pigweed, Palmer [15, 29]: 100
- Oat, Wild plant response rating ([16]; 500 g ai/ha): 80
- Plant response rating, Oat, Wild [16, 29]: 50
- Plant response rating, Ryegrass, Italian ([17]; 500 g ai/ha, postemergence): 60
- Plant response rating, Ryegrass, Italian ([17]; Postemergence, 125 g ai/ha): 30
- Plant response rating, Blackgrass ([18]; 500 g ai/ha, postemergence): 50
- Plant response rating, Blackgrass ([18]; Postemergence, 125 g ai/ha): 10
- Ryegrass, Italian plant response rating ([19]; 500 g ai/ha): 100
- Plant response rating, Ryegrass, Italian [19, 29]: 80
- Plant response rating, Foxtail, Green ([20]; 500 g ai/ha, postemergence): 70
- Plant response rating, Foxtail, Green ([20]; Postemergence, 125 g ai/ha): 30
- Plant response rating, Horseweed ([21]; 500 g ai/ha, postemergence): 60
- Plant response rating, Horseweed ([21]; Postemergence, 125 g ai/ha): 60
- Plant response rating, Barnyardgrass ([22]; 500 g ai/ha, postemergence): 70
- Plant response rating, Barnyardgrass ([22]; Postemergence, 125 g ai/ha): 20
- Plant response rating, Rice (Flood) [23]: 0
- Plant response rating, Pigweed, Palmer ([24]; 500 g ai/ha, postemergence): 100
- Plant response rating, Pigweed, Palmer ([24]; Postemergence, 125 g ai/ha): 80
- Plant response rating, Kochia ([25]; 500 g ai/ha, postemergence): 90
- Plant response rating, Kochia ([25]; Postemergence, 125 g ai/ha): 80
- Plant response rating, Soybean ([26]; 500 g ai/ha, postemergence): 100
- Plant response rating, Soybean ([26]; Postemergence, 125 g ai/ha): 100
- Plant response rating, Galium ([27]; 500 g ai/ha, postemergence): 100
- Plant response rating, Galium ([27]; Postemergence, 125 g ai/ha): 90
- Soybean plant response rating ([28]; 500 g ai/ha): 60
- Plant response rating, Soybean [28, 29]: 100

Compound: CCOc1ncn(-c2cccc(C(=O)N3C[C@H](C)Oc4c(Cl)cccc43)c2)n1 [Compound 311]
- Corn plant response rating ([1]; 500 g ai/ha): 0
- Corn plant response rating ([1]; Test C, 125 g ai/ha): 0
- Plant response rating, Sedge, Umbrella (Flood) [2]: 0
- Plant response rating, Ducksalad (Flood) [3]: 0
- Plant response rating, Wheat ([4]; 500 g ai/ha, postemergence): 10
- Plant response rating, Wheat ([4]; Postemergence, 125 g ai/ha): 10
- Wheat plant response rating ([5]; 500 g ai/ha): 20
- Wheat plant response rating ([5]; Test C, 125 g ai/ha): 0
- Plant response rating, Oat, Wild ([6]; 500 g ai/ha, postemergence): 10
- Plant response rating, Oat, Wild ([6]; Postemergence, 125 g ai/ha): 0
- Barnyardgrass plant response rating ([7]; 500 g ai/ha): 60
- Barnyardgrass plant response rating ([7]; Test C, 125 g ai/ha): 0
- Plant response rating, Ragweed ([8]; 500 g ai/ha, postemergence): 40
- Plant response rating, Ragweed ([8]; Postemergence, 125 g ai/ha): 0
- Foxtail, Green plant response rating ([9]; 500 g ai/ha): 100
- Foxtail, Green plant response rating ([9]; Test C, 125 g ai/ha): 90
- Plant response rating, Barnyardgrass (Flood) [10]: 0
- Plant response rating, Corn ([11]; 500 g ai/ha, postemergence): 40
- Plant response rating, Corn ([11]; Postemergence, 125 g ai/ha): 10
- Kochia plant response rating ([12]; 500 g ai/ha): 80
- Kochia plant response rating ([12]; Test C, 125 g ai/ha): 20
- Blackgrass plant response rating ([14]; 500 g ai/ha): 80
- Blackgrass plant response rating ([14]; Test C, 125 g ai/ha): 10
- Pigweed, Palmer plant response rating ([15]; 500 g ai/ha): 100
- Pigweed, Palmer plant response rating ([15]; Test C, 125 g ai/ha): 50
- Oat, Wild plant response rating ([16]; 500 g ai/ha): 30
- Oat, Wild plant response rating ([16]; Test C, 125 g ai/ha): 0
- Plant response rating, Ryegrass, Italian ([17]; 500 g ai/ha, postemergence): 30
- Plant response rating, Ryegrass, Italian ([17]; Postemergence, 125 g ai/ha): 10
- Plant response rating, Blackgrass ([18]; 500 g ai/ha, postemergence): 90
- Plant response rating, Blackgrass ([18]; Postemergence, 125 g ai/ha): 0
- Ryegrass, Italian plant response rating ([19]; 500 g ai/ha): 80
- Ryegrass, Italian plant response rating ([19]; Test C, 125 g ai/ha): 30
- Plant response rating, Foxtail, Green ([20]; 500 g ai/ha, postemergence): 40
- Plant response rating, Foxtail, Green ([20]; Postemergence, 125 g ai/ha): 30
- Plant response rating, Horseweed ([21]; 500 g ai/ha, postemergence): 50
- Plant response rating, Horseweed ([21]; Postemergence, 125 g ai/ha): 50
- Plant response rating, Barnyardgrass ([22]; 500 g ai/ha, postemergence): 40
- Plant response rating, Barnyardgrass ([22]; Postemergence, 125 g ai/ha): 10
- Plant response rating, Rice (Flood) [23]: 0
- Plant response rating, Pigweed, Palmer ([24]; 500 g ai/ha, postemergence): 60
- Plant response rating, Pigweed, Palmer ([24]; Postemergence, 125 g ai/ha): 20
- Plant response rating, Kochia ([25]; 500 g ai/ha, postemergence): 70
- Plant response rating, Kochia ([25]; Postemergence, 125 g ai/ha): 30
- Plant response rating, Soybean ([26]; 500 g ai/ha, postemergence): 100
- Plant response rating, Soybean ([26]; Postemergence, 125 g ai/ha): 70
- Plant response rating, Galium ([27]; 500 g ai/ha, postemergence): 90
- Plant response rating, Galium ([27]; Postemergence, 125 g ai/ha): 90
- Soybean plant response rating ([28]; 500 g ai/ha): 10
- Soybean plant response rating ([28]; Test C, 125 g ai/ha): 0
